# Measurements as given in patent publication US10478421B1, “Sortilin binding compounds, formulations, and uses thereof” (University of Florida, priority 2016, dated 2019).
# Columns and labels:
# Format in all cases: cell-based, rat
# McA cells [1] = assay: VLDL-B100 secretion by McA cells (immuno slot blotting); conditions: for effect on VLDL-B100 secretion: increasing concentrations; for increase in VLDL-B100 secretion over the no cpd984 control: 18 h, 1% BSA/DMEM, insulin sensitive McA cells
# Description: McArdle RH-7777 cells (McA cells) were cultured as previously described in serum containing complete Dulbecco's Modified Eagle's Medium (cDMEM). To induce insulin sensitivity, McA cells at 50-60% confluency were incubated for 18 h in serum-free media containing DMEM containing 1% (w/v) BSA (1% BSA/DMEM). Human sortilin (hsortilin) (Ser78-Asn755) with C-terminal 6-His tag was from R&D Systems, Inc., (Minneapolis, Minn.). Plasma from fasted Sprague Dawley rats (BioreclamationIVT, Westbury, N.Y.) was used to prepare VLDL apo B standards. Mouse monoclonal antibody to rat B100 was prepared in our laboratory and characterized previously. Rabbit anti-sortilin antibody was from GeneTex (GTX54854, Irvine, Calif.) or from Abcam (ab16640, Cambridge, Mass.). Rabbit anti-p-AKT (9271), rabbit anti-AKT (9272), and rabbit anti-insulin receptor β-subunit (IRβ, 3025) were from Cell Signaling Technology (Danvers, Mass.). Mouse anti-pY Platinum 4G10 was from EMD Millipore (Temecula, Calif.). (Horseradish peroxidase linked donkey anti-rabbit IgG (NA9340), sheep anti-mouse IgG (NXA931) and ECL Prime Western Blotting Detection Reagent (RPN2232) were from GE Healthcare (Buckinghamshire, UK). All other materials and reagents were essentially as described previously. Compound 98,477,898 (25)-1-methyl-N-{3-[(3-phenylpropanoyl)-amino]phenyl}pyrrolidine-2-carboxamide (cpd984) was obtained from ChemBridge Corp. (San Diego, Calif.). A stock solution of cpd984 (10 mM) was prepared in DMSO, and stored in aliquots at −20° C.
# Experimental media were adjusted to 1% (v/v) protease inhibitor cocktail I (EMD Millipore) and to a salt density of 1.019 g/ml by addition of a solution of NaBr (d=1.495 g/ml). VLDL was isolated by ultracentrifugation in a L-70 Ultracentrifuge (Beckman Coulter, Inc., Fullterton, Calif.) using a 50Ti rotor (200,000×g, 18 h, 14° C.). Following centrifugation, the top 1.5-2.0 ml VLDL fraction was removed using a syringe and weighed to determine volume. VLDL samples were applied in triplicate wells (0.2-0.4 ml per well) in a Bio-Dot® SF apparatus (Bio-Rad). Two PVDF membranes were used together for blotting: the top was Immobilon-P (IPVH09120 SF) and the bottom was Immobilin-PSQ (ISEQ09120 SF); both were obtained from EMD Millipore. VLDL apo B standards were prepared from rat plasma VLDL and total apo B (B100 and B48) and B100 content were determined on stained gels following SDS-PAGE separation. VLDL-apo B standards in TBS were slotted in duplicate alongside test samples. After filtration, 0.4 ml of TBS was added as a wash. […] At this stage slot blots were evaluated similarly to immunoblotting. After chemiluminescence development and B100 quantitation, slot blots were stripped by incubation in Restore™ PLUS for 15 min at room temperature (Thermo Scientific, Rockford, Ill.) and were reblocked overnight at 4° C. Total apo B (B100 and B48) present in VLDL was then evaluated following incubation with rabbit polyclonal anti-rat apo B. The bottom PVDF membrane was carried through the entire procedure to assure there was no “bleed through” of test samples. VLDL-apo B and VLDL-B100 content were calculated from standard curves generated by VLDL apo B standards. […]
# McArdle rat hepatocytes were incubated with increasing concentrations of cpd984 or cpd541 for 14-18 h and media were collected. […] Binding was detected by chemiluminescence detection and quantified using Bio-Rad software. […]
# McA cells [2] = assay: Insulin signaling (pY-IRβ, p-AKT S473) by immunoblotting in McA cells; conditions: 10 μM, 18 h, then 250 nM insulin
# Description: (FIG. 4A) McA cell lines with variable sortilin KD were incubated with vehicle (black bars) or with 10 μM cpd984 (gray bars) for 18 h (3-100 mm plates per condition). […] VLDL was isolated from media of each plate and VLDL-B100 was quantified by immuno slot blotting. Results presented are averages of the 3 plates ±S.D. (FIG. 4B) McA cells were incubated for 18 h in 1% BSA/DMEM±10 μM cpd984. McA cells were then stimulated with a time course of 250 nM insulin (0, 5, 10 and 15 min). IRβ and AKT, pY-IRβ, and p-AKT (S473) were evaluated by immunoblotting using protein and phosphospecific antibodies.
# McA cell lysates were prepared and denatured proteins were separated by SDS-PAGE as described previously. Following electrophoretic transfer to PVDF membranes and blocking non-specific binding, membranes were incubated with primary antibodies overnight at 4° C. in blocking buffer. Antibody binding was detected by incubation for 1-2 h at room temperature with species specific secondary HRP-linked antibodies and developed using Amersham™ Prime reagent (GE Healthcare). Insulin signaling to IRβ and AKT were evaluated using nitrocellulose membranes (Bio-Rad) and phosphospecific (pY, p-AKT(Ser473) and mass specific antibodies. Chemiluminescence was measured using the ChemiDocXRS+system (Bio-Rad) and band intensities quantified using Image Lab 3.0.1 software (Bio-Rad).
# LDLR = assay: Cellular LDLR by immunoblot in McA cells; conditions: 10 μM, 18 h, 1% BSA/DMEM
# Description: McA cells were incubated in 1% BSA/DMEM with DMSO, 541 (10 μM) or 984 (10 μM) for 18 h. Cellular proteins were extracted and analyzed by IB for LDLR (LS-C146979, 1:2000) (FIG. 5A) or PCSK9 (Ab125251, 1:2000) (FIG. 5B) using HRP-linked secondary antibody and ECL detection. Loading controls included β-ACTIN (Rockland ph600-401-886) and GAPDH (cb1001mAb (6C5). Band intensities were measured using ChemiDocXRS+ system and evaluated using ImageLab 5.1 software (BioRad). Results are average of triplicates ±S.D. PCSK9 is a known ligand for sortilin where sortilin acts as a chaperone for PCSK9 secretion.
Compound,effect on VLDL-B100 secretion (McA cells [1]; 14-18 h),"effect on insulin sensitivity (insulin-dependent pY of IRβ, pAKT) (McA cells [2])",increase in VLDL-B100 secretion over the no cpd984 control (McA cells [1]; 10 μM),increase in VLDL-B100 secretion over the no cpd984 control (McA cells [1]; 25 μM),"effect of 984 on VLDL-B100 and VLDL-apoE secretion when given in combination with 541 (McA cells [1]; combination of both compounds, 0.1-25 μM, 14-18 h)",effect on LDL receptors (LDLR)
CC(NC(=O)c1ccccc1NCC(=O)O)c1ccccc1 (stereo not shown) [cpd541],decreases VLDL-B100 secretion,,,,,
"CN1CCC[C@H]1C(=O)Nc1cccc(NC(=O)CCc2ccccc2)c1 [cpd984, (2S)-1-methyl-N-{3-[(3-phenylpropanoyl)-amino]phenyl} pyrrolidine-2-carboxamide]",increases VLDL-B100 secretion,did not alter insulin sensitivity,30%,61%,abrogated,increase in LDL receptors
